In one data set the test system is neoplastic cell lines. In words: MTS cytotoxicity, panel of cancer cell lines. It counts as cell-based, human. The note with it: majority of the tested cancer cell lines; read-out: general cytotoxic activity (compound concentration that results in death of 50% of the cell). On the procedure: (§1) Ten thousand cells of human chronic myelocytic leukemia K562 were inoculated into each well of a 96-well microplate (manufactured by Corning Corp.) using Iscove's MDM medium (culture medium) containing 10% fetal calf serum (FCS). The same day, a dimethyl sulfoxide (DMSO) solution of each test compound prepared in a concentration of 10 mmol/L was further diluted with DMSO to the desired concentrations (0.1, 0.5, 1, 2.5, 5 and 10 micromol/L), and the diluted solution was added to each well. The individual wells were further cultured in 5% carbon dioxide at 37° C. for 72 hours. After completion of the culture, 10 μl MTS (3-(4,5-Dimethyl-2-thiazolyl)-5-(carboxymethoxyphenyl)-2-(4-sulfophenyl)-2H-tetrazolium, inner salt assay (CellTiter96® AQueous One Solution Cell Proliferation Assay, Promega) was added to each well, and culturing was performed in 5% carbon dioxide at 37° C. for 2 hours. Using a microplate spectrophotometer (Synergy 2 multi-mode microplate reader (BioTek)), the absorbance of each well was measured at 490 nm. The value for cells not incorporated with a test compound was designated as 100%. By comparing these values with the absorbance difference obtained at the well in which each test compound was added, the cell viability (% viability) after treatment with the test compound was calculated.
as §1, with “Two” for “Ten”, “prostate adenocarcinoma PC3” for “chronic myelocytic leukemia K562”, “Corp.), and” for “Corp.)”, “F12K (Ham's F12:[…] 1:1)” for “Iscove's MDM”, “The same day, a dimethyl sulfoxide (DMSO) solution of each test compound prepared in a concentration of 10 mmol/L was further diluted with DMSO to the desired concentrations (0.1, 0.5, 1, 2.5, 5 and 10 micromol/L), and the diluted solution was added to each well. The individual wells were further cultured in 5% carbon dioxide at 37° C. for 72 hours.” left out
Two thousand cells of human prostate carcinoma DU145 were inoculated into each well of a 96-well microplate (manufactured by Corning Corp.), and using DMEM medium (culture medium) containing 10% fetal calf serum (FCS). […] After completion of the culture, 10 μl MTS (3-(4,5-Dimethyl-2-thiazolyl)-5-(carboxymethoxyphenyl)-2-(4-sulfophenyl)-2H-tetrazolium, innersalt assay (CellTiter96® AQueous One Solution Cell Proliferation Assay, Promega) was added to each well, and culturing was performed in 5% carbon dioxide at 37° C. for 2 hours. Using a microplate spectrophotometer (Synergy 2 multi-mode microplate reader (BioTek)), the absorbance of each well was measured at 490 nm. The value for cells not incorporated with a test compound was designated as 100%. By comparing these values with the absorbance difference obtained at the well in which each test compound was added, the cell viability (% viability) after treatment with the test compound was calculated. […]

Another data set is described as follows: Solubility in pH 7.4. The following applies: phosphate buffer.
For data set [1], the system named is human breast adenocarcinoma MCF7 cells. In words: Growth inhibition test (MTS). It counts as cell-based. The note with it: MCF-7; 72 hours. Here is the method: as §1, with “Two” for “Ten”, “breast adenocarcinoma MCF7” for “chronic myelocytic leukemia K562”, “Corp.), and” for “Corp.)”, “DMEM” for “Iscove's MDM”
Another data set concerns the target CLK1 (Homo sapiens, UniProt P49759). In words: KINOMEscan Max. In kind it is binding. Set-up: DNA tag (qPCR read-out); purchased Ambit Kinomescan. Here is the method:
(§2) Kinase panel profiling was performed at Ambit Kinomescan (http://www.ambitbio.com/technology/) using the “KINOMEscan™ Max” assay platform, a high-throughput method for screening small molecule compounds against large numbers of human kinases. KINOMEscan™ is based on a competition binding assay that quantitatively measures the ability of a compound to compete with an immobilized, active-site directed ligand. The assay is performed by combining three components: DNA-tagged kinase; immobilized ligand; and a test compound. The ability of the test compound to compete with the immobilized ligand is measured via quantitative PCR of the DNA tag. For a description of Ambit's assay protocol, see Fabian et al. A small molecule-kinase interaction map for clinical kinase inhibitors. Nat. Biotechnol. 23, 329-336 (2005).

In the next data set the target is PIM1 (Homo sapiens, UniProt P11309). Description: KINOMEscan Max. It counts as binding. More on the design: DNA tag (qPCR read-out); purchased Ambit Kinomescan. Here is the method:
as §2

For the next data set, the target named is PIM2 (Homo sapiens, UniProt Q9P1W9). Description: KINOMEscan Max. Set-up: DNA tag (qPCR read-out); purchased Ambit Kinomescan. It counts as binding. On the procedure: as §2
Chain of PIM2 (Q9P1W9 whole entry): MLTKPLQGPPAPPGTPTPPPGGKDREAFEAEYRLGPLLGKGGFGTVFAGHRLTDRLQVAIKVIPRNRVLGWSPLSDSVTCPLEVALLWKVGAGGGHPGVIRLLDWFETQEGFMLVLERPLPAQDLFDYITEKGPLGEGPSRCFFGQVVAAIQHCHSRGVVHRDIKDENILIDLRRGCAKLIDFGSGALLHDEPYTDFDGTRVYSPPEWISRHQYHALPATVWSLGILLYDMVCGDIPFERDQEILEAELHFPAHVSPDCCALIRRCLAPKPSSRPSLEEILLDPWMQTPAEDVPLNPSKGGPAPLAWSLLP
In another data set the target is PIM3 (Homo sapiens, UniProt Q86V86). Description: KINOMEscan Max. Set-up: DNA tag (qPCR read-out); purchased Ambit Kinomescan. It counts as binding. Here is the method: as §2

In general, solubility refers to how much of the substance goes into solution per volume. A high value points to a readily soluble substance.

Converted amounts (≈) assume the structure as drawn.

Chain of PIM1 (P11309 whole entry): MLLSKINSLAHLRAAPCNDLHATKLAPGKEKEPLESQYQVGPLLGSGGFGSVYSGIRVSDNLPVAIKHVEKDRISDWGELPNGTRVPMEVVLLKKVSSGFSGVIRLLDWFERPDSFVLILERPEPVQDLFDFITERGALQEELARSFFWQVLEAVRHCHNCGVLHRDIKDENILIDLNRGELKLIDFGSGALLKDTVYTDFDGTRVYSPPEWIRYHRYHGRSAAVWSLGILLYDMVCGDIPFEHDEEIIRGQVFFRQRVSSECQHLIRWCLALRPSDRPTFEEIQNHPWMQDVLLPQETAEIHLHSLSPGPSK
Chain of CLK1 (P49759 whole entry): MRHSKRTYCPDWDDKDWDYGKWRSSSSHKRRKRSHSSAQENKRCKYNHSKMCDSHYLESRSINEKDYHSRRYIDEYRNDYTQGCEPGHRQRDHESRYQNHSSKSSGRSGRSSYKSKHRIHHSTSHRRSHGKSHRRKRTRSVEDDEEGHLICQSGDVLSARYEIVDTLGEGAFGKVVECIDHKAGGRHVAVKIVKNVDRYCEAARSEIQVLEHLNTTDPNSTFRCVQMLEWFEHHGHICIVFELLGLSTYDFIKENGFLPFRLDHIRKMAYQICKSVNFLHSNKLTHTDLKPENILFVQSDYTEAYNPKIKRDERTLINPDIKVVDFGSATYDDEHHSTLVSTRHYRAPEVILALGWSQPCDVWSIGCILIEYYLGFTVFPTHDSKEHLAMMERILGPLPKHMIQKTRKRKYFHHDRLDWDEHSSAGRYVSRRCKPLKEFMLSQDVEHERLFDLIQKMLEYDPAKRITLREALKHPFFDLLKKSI
Protocol for Solubility in pH 7.4: Compound stock solutions were prepared in DMSO to final concentrations of 1000 mM. For each compound studied, 12 solutions were prepared to cover concentrations from 0.001 to 1 mM. As a solvent 0.2 mM phosphate buffer (pH 7.4) was used. The final concentration of DMSO in the solutions was 1% (v/v). The solutions were left mixing for 24 hours at 37° C., 350 rpm and following incubation centrifuged for 5 minutes at 14500 rpm. The samples were then analyzed by RP HPLC using a C18 column and 0.2% solution of formic acid in water/acetonitrile mobile phase. […] The solubility was determined as the point as the point at which the concentration curve reaches plateau.

Consider `Brc1c(Br)c(Br)c2[nH]nnc2c1Br` [TBB, reference compound], for which the EC50 in the data set on neoplastic cell lines was greater than 10 µM.

As for `Brc1c(Br)c(Br)c2[nH]c(NCCN3CCCC3)nc2c1Br` [Compound 14, 4,5,6,7-tetrabromo-N-(2-(pyrrolidin-1-yl)ethyl)-1H-benzo[d]imidazol-2-amine], in “Solubility in pH 7.4”, the solubility at 24 h turned out to be 31 µM (≈ 16.9 µg/mL).

With `CN(C)c1nc2c(Br)c(Br)c(Br)c(Br)c2[nH]1` [DMAT, reference compound], the “Solubility [mM] in phosphate buffer pH 7.4” value was less than 0.01 mM. Also, in data set [1], the “Cytotoxicity in MTS assay (ED50)” value was greater than 10 µM. For the same compound, in the data set on neoplastic cell lines, the EC50 is greater than 10 µM.

With `CN1CCN(c2nc3c(Br)c(Br)c(Br)c(Br)c3[nH]2)CC1` [Compound 21, 4,5,6,7-tetrabromo-2-(4-methylpiperazin-1-yl)-1H-benzo[d]imidazole], the “Cytotoxicity in MTS assay (ED50)” value in data set [1] is greater than 10 µM. Besides, the solubility at 24 h in “Solubility in pH 7.4” is less than 10 µM.

Turning to `NCCCNc1nc2c(Br)c(Br)c(Br)c(Br)c2[nH]1` [Compound 11, N-(3-aminopropyl)-4,5,6,7-tetrabromo-1H-benzo[d]imidazol-2-amine], the “Cytotoxicity in MTS assay (ED50)” value in data set [1] was determined as 5.34 µM. This compound yielded a solubility at 24 h in “Solubility in pH 7.4” of 370 µM (≈ 187 µg/mL). Also, the remaining binding at 1 µM on CLK1 came to 5.1%; at PIM1, 4%; on PIM2, 0.85%; on PIM3, 5.2%.

`CN(C)c1nc2c(Br)c(Br)c(Br)c(Br)c2n1CC(=O)O` [Compound K66, reference compound]: in the data set on neoplastic cell lines, the EC50 is greater than 10 µM.

For the compound `Brc1c(Br)c(Br)c2[nH]cnc2c1Br` [TBI, reference compound], the EC50 in the data set on neoplastic cell lines is greater than 10 µM.

As to `Brc1c(Br)c(Br)c2c(Br)n[nH]c2c1Br` [Compound K64, reference compound], the EC50 in the data set on neoplastic cell lines is greater than 10 µM.

Turning to `Brc1c(Br)c(Br)c2[nH]c(NCCN3CCOCC3)nc2c1Br` [Compound 16, 4,5,6,7-tetrabromo-N-(2-morpholinoethyl)-1H-benzo[d]imidazol-2-amine], the “Cytotoxicity in MTS assay (ED50)” value in data set [1] was greater than 10 µM. In the data set “Solubility in pH 7.4”, this compound gave a solubility at 24 h of 23 µM (≈ 12.9 µg/mL).
